Measurements taken from patent publication US20210369710A1, “MODULATORS OF MYC FAMILY PROTO-ONCOGENE PROTEIN” (Nalo Therapeutics, priority 2019, published 2021).

Tests used:
MycC Protein = molecular target: T1, MycC Protein (Homo sapiens, UniProt P01106); assay: Degradation of MycC protein, Western blot band density in cells; format: cell-based; details: HL-60 or SKNBE2 cells; 6 uL of compound (1 mM) added to 3 mL cells; 6 hours; Western blot band density (ImageJ)
T1 construct: endogenous in cells; host or cells: HL-60 or SKNBE2
Method: (§1) In a T150 flask was plated either 2×10^6 of HL-60 (human leukemia cell line) or SKNBE2 (neuroblastoma cell line) cells in a total of 30 mL containing Roswell Park Memorial Institute (RPMI) 1640 Medium (Thermo Fisher, Cat. #11875-085), 10% Fetal Bovine Serum (FBS, Thermo Fisher: Cat. #10437-028), 1% Penicillin/streptomycin (Thermo Fisher: Cat. #10378016), and 1% Amophotericin B (Thermo Fisher, Cat. #15290026). The cells were split every 72 hours by reseeding the HL-60 or SKNBE2 cells, and the passage number was noted. It is noteworthy that cell cultures that were above 40 passages were not used, and most experiments were done with cells of less than 30 passages.
(§2) In a 6-well cell culture plate, a total of 3 mL of either 1×10^6 cells/mL of HL-60 or SKNBE2 cells were seeded, resulting in a total of 3×10^6 cells per well. To each well containing 3 mL of either HL-60 or SKNBE2 cell line was added 6 uL of MycN modulating compound (1 mM) and the resulting plate was shaken from left to right, and not swirled. After 6 hours, the cells were placed in a 15 mL falcon tube and spun at 500 Gs at 4° C. in a swinging bucket centrifuge. The medium was then carefully removed without disturbing the pellet. The pellet was then washed with 3 mLs of chilled phosphate buffered saline (PBS) and subjected to the spin cycle. PBS was then removed and the pellet was lysed in 200 uL of radioimmunoprecipitation (RIPA) lysis buffer (Thermo Fisher: Cat. #899000) that is supplemented with protease and phosphatase inhibitors (Thermo Fisher: Cat. #A32959). The cell lysate was then subjected to spinning in a centrifuge for 10 minutes at 13000G at 4° C. The supernatant was then carefully transferred to a fresh eppendorf tube without disturbing the pellet (˜180 uL). The protein concentration of the cell lysate was then determined by using a bicinchoninic acid (BCA assay) according to manufacturer's protocol (Thermo Fisher: Cat. #23227).
(§3) Cell lysate, approximately 25 ug-30 ug, was loaded per well in a 4-20% polyacrylamide gel (Biorad. Cat. #5671094). After running the dye front off of the gel, the gel was transferred to a nitrocellulose membrane (Biorad: Cat. #1704159) using the transblot turbo system (Biorad: Cat. #1704150) according to manufacturer's protocol. After transferring for 30 minutes, the membrane was blocked with 5% BSA for 1 hour at room temperature. The BSA was then washed off and the primary antibody of choice (1:500) was added, and the membrane was incubated with the primary antibody at 4° C. for overnight. The next morning, the primary antibody was removed and the membrane was washed with 1×-TBST for 10 minutes and repeated three more times. Following the last wash, a secondary antibody (Molecular Devices. Cat. #R8209 or R8208) was added at 1:5000 dilution and incubated for 1 hour at room temperature. Following the incubation with the secondary antibody, the membrane was washed with 1×-TBST for 10 minutes and repeated three more times. Following the last wash, the membrane was washed with de-ionized water twice and dried for at least two hours. Once the membrane is completely dry, the Molecular Devices Spectra Max western system was used to observe the bands. The western image was saved and the band density was measured with ImageJ software.

MycN Protein = molecular target: T2, MycN Protein (Homo sapiens, UniProt P04198); assay: Degradation of MycN protein, Western blot band density in cells; format: cell-based; details: HL-60 or SKNBE2 cells; 6 uL of compound (1 mM) added to 3 mL cells; 6 hours; Western blot band density (ImageJ)
T2 construct: endogenous in cells; host or cells: HL-60 or SKNBE2
T2 sequence (P04198 1-464): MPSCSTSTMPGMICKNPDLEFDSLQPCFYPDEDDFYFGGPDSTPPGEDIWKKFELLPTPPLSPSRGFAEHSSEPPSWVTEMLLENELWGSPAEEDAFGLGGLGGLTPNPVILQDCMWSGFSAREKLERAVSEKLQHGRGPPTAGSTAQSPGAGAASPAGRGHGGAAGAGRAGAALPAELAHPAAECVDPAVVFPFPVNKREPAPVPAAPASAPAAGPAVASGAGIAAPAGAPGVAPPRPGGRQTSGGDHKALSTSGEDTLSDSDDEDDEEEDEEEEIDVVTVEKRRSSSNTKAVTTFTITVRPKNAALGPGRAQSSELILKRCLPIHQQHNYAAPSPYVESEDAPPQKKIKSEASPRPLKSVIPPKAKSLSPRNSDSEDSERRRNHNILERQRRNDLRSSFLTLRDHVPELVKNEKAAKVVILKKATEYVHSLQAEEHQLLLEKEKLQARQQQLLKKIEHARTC
Method: as §1, §2, §3

T1 sequence (P01106 whole entry): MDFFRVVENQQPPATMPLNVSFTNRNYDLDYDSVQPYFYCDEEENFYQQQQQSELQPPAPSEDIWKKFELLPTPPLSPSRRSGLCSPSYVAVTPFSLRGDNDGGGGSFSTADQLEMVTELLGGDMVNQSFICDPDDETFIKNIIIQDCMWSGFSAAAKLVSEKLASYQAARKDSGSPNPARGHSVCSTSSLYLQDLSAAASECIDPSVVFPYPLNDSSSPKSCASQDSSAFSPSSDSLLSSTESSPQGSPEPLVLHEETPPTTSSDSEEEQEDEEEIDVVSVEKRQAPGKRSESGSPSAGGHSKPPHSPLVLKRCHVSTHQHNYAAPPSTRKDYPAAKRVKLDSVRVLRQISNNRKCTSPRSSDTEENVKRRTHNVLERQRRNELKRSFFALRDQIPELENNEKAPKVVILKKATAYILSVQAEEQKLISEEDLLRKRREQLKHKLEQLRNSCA

Dmax at 2 µM (MycC Protein) [%]	Dmax at 2 µM (MycN Protein) [%]	% Degradation of MycC (MycC Protein)	% Degradation of MycN (MycN Protein)	Structure (SMILES)
< 20	< 20			O=C(NC1CCC2(CC1)COC2)N[C@H]1CC[C@H](Nc2nccc(Nc3cc(C4CCCC4)[nH]n3)n2)CC1 [Compound 49, 1-((1R,4R)-4-((4-((5-cyclopentyl-1H-pyrazol-3-yl)amino)pyrimidin-2-yl)amino)cyclohexyl)-3-(2-oxaspiro[3.5]nonan-7-yl)urea]
80 to 100	80 to 100			O=C(N[C@H]1CC[C@H](Nc2nccc(Nc3cc(C4CCCC4)[nH]n3)n2)CC1)N[C@H]1C[C@H](c2ccccc2)C1 [Compound 52, 1-((1R,4R)-4-((4-((5-cyclopentyl-1H-pyrazol-3-yl)amino)pyrimidin-2-yl)amino)cyclohexyl)-3-(3-phenylcyclobutyl)urea]
< 20	< 20			N#Cc1cccc([C@H]2C[C@H](NC(=O)N[C@H]3CC[C@H](Nc4nccc(Nc5cc(C6CCOC6)[nH]n5)n4)CC3)C2)c1 (some centres unmarked) [Compound 53]
20 to 49	< 20			CS(=O)(=O)N1CC(NC(=O)N[C@H]2CC[C@H](Nc3nccc(Nc4cc(C5CCCC5)[nH]n4)n3)CC2)C1 [Compound 56]
50 to 79	< 20			CS(=O)(=O)[C@H]1C[C@H](NC(=O)N[C@H]2CC[C@H](Nc3nccc(Nc4cc(C5CCCC5)[nH]n4)n3)CC2)C1 [Compound 57]
50 to 79	< 20			O=C(NC1CCC(Nc2nccc(Nc3cc(C4CCCC4)[nH]n3)n2)CC1)NC1CCCN(C2CC2)C1 [Compound 60, 1-((1R,4R)-4-((4-((5-cyclopentyl-1H-pyrazol-3-yl)amino)pyrimidin-2-yl)amino)cyclohexyl)-3-(1-cyclopropylpiperidine-3-yl)urea]
20 to 49	50 to 79			O=C(NC1CCC(Nc2nccc(Nc3cc(C4CCCC4)[nH]n3)n2)CC1)NC1CCN(C2CC2)CC1 (centres unmarked) [Compound 63]
20 to 49	< 20			O=C(NC1CCN(CCO)CC1)N[C@H]1CC[C@H](Nc2nccc(Nc3cc(C4CCCC4)[nH]n3)n2)CC1 [Compound 70, 1-((1R,4R)-4-((4-((5-cyclopentyl-1H-pyrazol-3-yl)amino)pyrimidin-2-yl)amino)cyclohexyl)-3-(1-(2-hydroxyethyl)piperidin-4-yl)urea]
20 to 49	< 20			O=C(NC1CCN(Cc2ccccn2)CC1)N[C@H]1CC[C@H](Nc2nccc(Nc3cc(C4CCCC4)[nH]n3)n2)CC1 [Compound 72, 1-((1R,4R)-4-((4-((5-cyclopentyl-1H-pyrazol-3-yl)amino)pyrimidin-2-yl)amino)cyclohexyl)-3-(1-(pyridin-2-ylmethyl)piperidin-4-yl)urea]
< 20	< 20			Cc1cc(Nc2ccnc(N[C@H]3CC[C@H](NC(=O)NC4CCN(Cc5ccccn5)CC4)CC3)n2)n[nH]1 [Compound 73, 1-((1R,4R)-4-((4-((5-methyl-1H-pyrazol-3-yl)amino)pyrimidin-2-yl)amino)cyclohexyl)-3-(1-(pyridin-2-ylmethyl)piperidin-4-yl)urea]
< 20	20 to 49			O=C(NC1CCN(Cc2ccccn2)CC1)N[C@H]1CC[C@H](Nc2nccc(Nc3cc(C4CCOC4)[nH]n3)n2)CC1 (stereo partly drawn) [Compound 74, 1-(1-(pyridin-2-ylmethyl)piperidin-4-yl)-3-((1R,4R)-4-((4-((5-(tetrahydrofuran-3-yl)-1H-pyrazol-3-yl)amino)pyrimidin-2-yl)amino)cyclohexyl)urea]
20 to 49	< 20			O=C(NC1CCN(Cc2ncccn2)CC1)N[C@H]1CC[C@H](Nc2nccc(Nc3cc(C4CCCC4)[nH]n3)n2)CC1 [Compound 75]
20 to 49	< 20			O=C(NC1CCC(Nc2nccc(Nc3cc(C4CCCC4)[nH]n3)n2)CC1)NC1CC2(C1)CN(C1CC1)C2 [Compound 77, 1-((1R,4R)-4-((4-((5-cyclopentyl-1H-pyrazol-3-yl)amino)pyrimidin-2-yl)amino)cyclohexyl)-3-(2-cyclopropyl-2-azaspiro[3.3]heptan-6-yl)urea]
20 to 49	< 20			O=C(NC1CCC(Nc2nccc(Nc3cc(C4CCCC4)[nH]n3)n2)CC1)NC1CCN(C2CC2)C1 [Compound 79, 1-((1R,4R)-4-((4-((5-cyclopentyl-1H-pyrazol-3-yl)amino)pyrimidin-2-yl)amino)cyclohexyl)-3-(1-cyclopropylpyrrolidin-3-yl)urea]
80 to 100	< 20			[H]/N=C(\Nc1cccc(C(F)(F)F)c1)N[C@H]1CC[C@H](Nc2nccc(Nc3cc(C4CCCC4)[nH]n3)n2)CC1 [Compound 81, 1-((1R,4R)-4-((4-((5-cyclopentyl-1H-pyrazol-3-yl)amino)pyrimidin-2-yl)amino)cyclohexyl)-3-(3-(trifluoromethyl)phenyl)guanidine]
< 20	< 20			C/N=C(\Nc1cccc(C(F)(F)F)c1)N[C@H]1CC[C@H](Nc2nccc(Nc3cc(C4CCCC4)[nH]n3)n2)CC1 [Compound 83]
< 20	< 20			FC(F)(F)C/N=C(\NC1CCOCC1)N[C@H]1CC[C@H](Nc2nccc(Nc3cc(C4CCCC4)[nH]n3)n2)CC1 [Compound 84]
		** (**: degradation 20-49%)	** (**: degradation 20-49%)	N#Cc1cccc(NC(=N)N[C@H]2CC[C@H](Nc3nccc(Nc4cc(C5CCCC5)[nH]n4)n3)CC2)c1 [Compound 87, 1-(3-cyanophenyl)-3-((1R,4R)-4-((4-((5-cyclopentyl-1H-pyrazol-3-yl)amino)pyrimidin-2-yl)amino)cyclohexyl)guanidine]
20 to 49	20 to 49			O=C(Nc1cccc(C(F)(F)F)c1)N[C@H]1C[C@H](Nc2nccc(Nc3cc(C4CCCC4)[nH]n3)n2)C1 [Compound 96]
80 to 100	< 20			O=C(NC1Cc2ccncc2C1)N[C@H]1CC[C@H](Nc2nccc(Nc3cc(C4CCCC4)[nH]n3)n2)CC1 (stereo partly drawn) [Compound 101, 1-((1R,4R)-4-((4-((5-cyclopentyl-1H-pyrazol-3-yl)amino)pyrimidin-2-yl)amino)cyclohexyl)-3-(6,7-dihydro-5H-cyclopenta[c]pyridin-6-yl)urea]
< 20	< 20			O=C(NC1CC(c2ccccc2)C1)N[C@H]1CC[C@H](Nc2nccc(Nc3cc(C4CCOC4)[nH]n3)n2)CC1 (stereo partly drawn) [Compound 102, 1-((1R,3R)-3-phenylcyclobutyl)-3-((1,4R)-4-((4-((5-(tetrahydrofuran-3-yl)1H-pyrazol-3-yl)amino)pyrimidine-2-yl)amino)cyclohexyl)urea]
< 20	< 20			Cc1cc(Nc2ccnc(N[C@H]3CC[C@H](NC(=O)NC4CCN(C(=O)C5CC5)CC4)CC3)n2)n[nH]1 [Compound 103, 1-(1-(cyclopropanecarbonyl)piperidin-4-yl)-3-((1R,4R)-4-((4-((5-methyl-1H-pyrazol-3-yl)amino)pyrimidin-2-yl)amino)cyclohexyl)urea]
